# Assay results reported in patent US4921871A, “Enolamides, pharmaceutical compositions and methods of use thereof for treating inflammation” (Warner-Lambert Company, priority 1987, dated 1990).
# Biological target: T1, leukotriene receptor (Cavia porcellus, UniProt Q2NNR5)
# T1 construct: Two pairs of lungs (1.3 g) from freshly sacrificed 300 g male guinea pigs; tissue Kuiper Rabbit Farm, Gary, Ind; (animals); host or cells: guinea pig lung, crude membranes
# T1 sequence (Q2NNR5 1-340): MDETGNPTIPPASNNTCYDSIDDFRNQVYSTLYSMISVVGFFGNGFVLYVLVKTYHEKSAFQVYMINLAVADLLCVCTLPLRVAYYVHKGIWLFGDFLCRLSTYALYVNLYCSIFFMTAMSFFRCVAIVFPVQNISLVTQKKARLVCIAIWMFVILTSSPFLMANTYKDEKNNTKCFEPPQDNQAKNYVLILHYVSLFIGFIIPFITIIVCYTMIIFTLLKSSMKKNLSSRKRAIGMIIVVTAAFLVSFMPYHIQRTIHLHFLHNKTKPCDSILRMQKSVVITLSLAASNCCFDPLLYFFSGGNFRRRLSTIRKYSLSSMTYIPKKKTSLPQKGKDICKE
# Experiment: Binding of 3H-Leukotriene D4 to Guinea Pig Lung Membranes (RBL)
# Conditions: 1.00 E -4 M
# Procedure: Additionally, the activity, of the compounds having the Formula I of the present invention is determined by the well known leukotriene receptor binding assay that is described by R. F. Bruns, W. J. Thomsen and T. A. Pugsley in Life Sciences, 33, 645 (1983) or the Herxheimer in vivo antiallergy test described in H. Herxheimer, J. Physiol. (London), Vol. 177, p. 251 (1952).
# [14,15-^3 H]leukotriene D4 (^3 H-LTD4) (25 Ci/mmol and 40 Ci/mmol) is purchased from New England Nuclear. Unlabeled LTC4 is a gift of Ono Pharmaceuticals (Japan). LTC4, LTD4, and LTE4 are purchased as methyl esters from Paesel GmbH (Frankfurt, W. Germany). Concentrations of the Paesel leukotrienes are calculated from their absorbance at 280 nm. Leukotriene esters are saponified overnight under N2 in 3.3% potassium carbonate at room temperature. Tritiated leukotrienes are stored as received from New England Nuclear at -20° C. Ono LTC4 (5 μg/ml) is stored at -60° C. in phosphate buffer pH - 6.8. Saponified Paesel leukotrienes are stored at -60° C. in 3.3% potassium carbonate (pH 9.0-9.5). Aliquots of leukotrienes are taken from stock solutions immediately after thawing, after which the stock solutions are immediately refrozen. 2-Amino-2-(hydroxymethyl)-1,3-propanediol (Tris) is Sigma pH 7.7 pre-set crystals, and dimethylsulfoxide is Aldrich Gold Label. Preparation of crude lung membranes
# Two pairs of lungs (1.3 g) from freshly sacrificed 300 g male guinea pigs (older animals gave substantially lower binding) from Kuiper Rabbit Farm, Gary, Ind. are disrupted with a Polytron PT 10 (setting 4) for 30 seconds in 20 ml ice-cold 50 mM Tris adjusted with HCl to pH 7.7 at 25° C. (Tris buffer), filtered through a single layer of gauze to remove connective tissue, and centrifuged at 50,000 xg for ten min. The pellet is resuspended by homogenization with a Polytron in 20 ml Tris buffer, centrifuged at 50,000 xg for ten min., resuspended, incubated at 37° C. for 30 minutes, and centrifuged again. The final pellet is resuspended in Tris buffer and either used fresh or stored at -70° C.
# All incubations are in triplicate for 60 minutes at 25° C. in 12×75 mm polystyrene tubes containing 1 ml Tris buffer with 20 mg original tissue wet weight of guinea pig lung membranes, 0.2 nM ^3 H-LTD4 (6,000-11,000 cpm), 10 mM MgCl2, and 1% dimethylsulfoxide. Leukotrienes are diluted in Tris buffer. All other test compounds dissolved at 10 mM in dimethylsulfoxide on the same day as the experiment, and diluted in dimethylsulfoxide to 100× the final incubation concentration. Control incubations receive an equal volume (10 μl) of dimethylsulfoxide; the resulting concentration of dimethylsulfoxide had no effect on binding. ^3 H-LTD4 is diluted to 2 nM in Tris buffer. The membrane suspension (20 mg/0.89 ml) contains sufficient MgCl2 to give 10 mM final concentration in the incubation. […] All additions are performed at 0° C. Immediately after the last addition, the incubation is initiated by agitating the rack of tubes on a vortex mixer and warming to 25° C. in a water bath. Tubes are vortexed at least once more during the incubation to ensure that the membranes remained suspended. Incubations are terminated after 60 minutes by filtering under reduced pressure through 25 mm Whatman GF/B filters followed by rapid washing three times with 4 ml of ice-cold Tris buffer. Filters are added to scintillation vials with 8 ml Formula 947 (New England Nuclear), left overnight, shaken, and the radioactivity counted in a scintillation counter (efficiency 40%). Nonspecific binding, defined as binding of ^3 H-LTD4 in the presence of 100 nM LTC4, is 300-500 cpm for all lots of ^3 H-LTD4. Binding to the filters in the absence of tissue is about 100 cpm, and is not affected by unlabeled LTC4. Specific binding, defined as total binding minus nonspecific binding, varied considerably from lot to lot of ^3 H-LTD4. […]
smiles,measurement,value
"O=C(Nc1ccc(CCc2ccc(Cl)c(Cl)c2)cc1)C(=O)c1sc2ccccc2c1O [Example 136, Benzo[b]thiophene-2-acetamide, N-[4-[2-(3,4-dichlorophenyl)ethyl]phenyl]-3-hydroxy-α-oxo]","RBL, % Inhibition",11.0%
"COc1c(C(=O)Nc2ccc(CCc3ccc(Cl)c(Cl)c3)cc2)sc2ccccc12 [Example 147, Benzo[b]thiophene-2-carboxamide, N-[4-[2-(3,4-dichlorophenyl)ethyl]phenyl]-3-methoxy]","RBL, % Inhibition",3.0%
